# Measurements: PubChem BioAssay (NCI)
# Values joined by “and” are separate entries in the source; they are usually repeats but may differ in a detail not shown here. Equal entries are not always repeated.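 Results reflect a 48-hour exposure of cells in 96-well plates to compound at five concentrations. Abbreviation: GI50, concentration required for 50% inhibition of growth. TGI: total growth inhibition.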
# Tested on: HCT-15 colon
# Experiment: DTP human tumour cell line panel, 48 h
Structure (SMILES),GI50,TGI
O=C(Nc1nc(-c2c[nH]c3ccccc23)cs1)c1n[nH]c(=O)c2ccccc12,290 nM,> 36.7 µM
CN(C)CCN1CCC(Cc2ccccc2)CC1,> 80000 nM,> 80 µM
COc1cc2c3c(n(C)c(=O)c2cc1OC)-c1cc2c(cc1C3=O)OCO2,–,> 100 µM
COc1ccc(/C=C\c2cc(OC)c(OC)c(OC)c2)cc1OCC(=O)O,–,80.8 µM
CCOc1ccc(NC(=O)CC2SC(=Nc3ccc(C)cc3C)NC2=O)cc1 (centres undefined),–,> 100 µM
CCSc1nc(N=Cc2ccccc2O)c2cn[nH]c2n1,39800 nM,> 100 µM
O=C(Nc1ncc(Cc2cccc(C(F)(F)F)c2)s1)c1ccc2c(c1)OCCO2,139 nM,> 100 µM
NC(=O)c1cc(I)ccc1NC(=O)/C=C/c1ccccc1,587 nM,> 100 µM
COc1ccc(CNc2c3ccccc3nc3ccccc23)cc1F,2450 nM,7.8 µM
CCn1cc(-c2ccnc3[nH]c(-c4cccc(CN(C)C)c4)cc23)c(-c2ccc(NC(=O)N(C)C)cc2)n1,2850 nM and 3150 nM,27.2 µM and > 10 µM
O=C1C/C(Br)=C\c2ccccc2-c2ccccc21,–,3.36 µM
CNc1cc2oc(=O)cc(C)c2cc1C,–,> 100 µM

# Tested on: IGROV1 ovarian
# Experiment: DTP human tumour cell line panel, 48 h
Structure (SMILES),GI50,TGI
COC(=O)C1=CN(CC2=CC(=O)C(C)=CC2=O)C=C(C(=O)OC)C1c1ccccc1OC,22300 nM,57.3 µM
COC(=O)/C=C/c1cc(OC(C)=O)c2c(c1)C(C(=O)OC)C(c1ccc(OC(C)=O)c(OC(C)=O)c1)O2 (centres undefined),589 nM,> 100 µM
O=C(O)c1ccc(CNCc2ccccc2)cc1,–,> 100 µM
Cc1cc2c(cc1C)[n+](=O)cc(C(=O)C/C(=N/NC(=S)NN)C(=O)Nc1cccc(C(F)(F)F)c1)n2[O-],–,> 100 µM
COCOCCC#CCO,–,> 100 µM
CC(C)=CCC1=C(O)c2ccccc2C(=O)C1=O,> 100000 nM and 46200 nM and 14800 nM,> 100 µM
O=[N+]([O-])c1ccccc1N=Nc1c(O)[nH]c2c(Cl)cc(Cl)cc12,–,> 100 µM
NC(=S)N/N=C/c1ncccc1O,2880 nM,> 96.7 µM and 380 µM
O=C(CC(=O)Nc1ccccc1)NNC(Sc1ccccc1)c1cc(N=Nc2ccc(Br)cc2)ccc1O (centres undefined),–,> 10 µM
CCOc1ccc(OCC(=O)O)c2c1CCCC2=O,–,> 100 µM
Cc1cc(C(=O)CSC(=S)SC(C)(C)C)ccc1Cl,–,> 100 µM
C=CC12CCN(CC1)C(C(O)c1ccnc3ccc(OC)cc13)C2 (centres undefined),> 100000 nM,> 100 µM
O=C(Nc1nc(-c2c[nH]c3ccccc23)cs1)c1n[nH]c(=O)c2ccccc12,2010 nM,34.7 µM
CN(C)CCN1CCC(Cc2ccccc2)CC1,> 80000 nM,> 80 µM
COc1cc2c3c(n(C)c(=O)c2cc1OC)-c1cc2c(cc1C3=O)OCO2,–,40.9 µM
COc1ccc(/C=C\c2cc(OC)c(OC)c(OC)c2)cc1OCC(=O)O,–,> 100 µM
CCOc1ccc(NC(=O)CC2SC(=Nc3ccc(C)cc3C)NC2=O)cc1 (centres undefined),–,> 100 µM
CCSc1nc(N=Cc2ccccc2O)c2cn[nH]c2n1,40900 nM,> 100 µM
O=C(Nc1ncc(Cc2cccc(C(F)(F)F)c2)s1)c1ccc2c(c1)OCCO2,400 nM,> 100 µM
NC(=O)c1cc(I)ccc1NC(=O)/C=C/c1ccccc1,917 nM,19.9 µM
COc1ccc(CNc2c3ccccc3nc3ccccc23)cc1F,2820 nM,10.4 µM
CCn1cc(-c2ccnc3[nH]c(-c4cccc(CN(C)C)c4)cc23)c(-c2ccc(NC(=O)N(C)C)cc2)n1,3470 nM and 1900 nM,33.2 µM and > 10 µM
O=C1C/C(Br)=C\c2ccccc2-c2ccccc21,–,9.02 µM
CNc1cc2oc(=O)cc(C)c2cc1C,–,> 100 µM

# Tested on: M14 melanoma
# Experiment: DTP human tumour cell line panel, 48 h
Structure (SMILES),GI50,TGI
COC(=O)C1=CN(CC2=CC(=O)C(C)=CC2=O)C=C(C(=O)OC)C1c1ccccc1OC,17300 nM,32.7 µM
COC(=O)/C=C/c1cc(OC(C)=O)c2c(c1)C(C(=O)OC)C(c1ccc(OC(C)=O)c(OC(C)=O)c1)O2 (centres undefined),41.1 nM,15.1 µM
O=C(O)c1ccc(CNCc2ccccc2)cc1,–,> 100 µM
Cc1cc2c(cc1C)[n+](=O)cc(C(=O)C/C(=N/NC(=S)NN)C(=O)Nc1cccc(C(F)(F)F)c1)n2[O-],–,> 100 µM
COCOCCC#CCO,–,> 100 µM
CC(C)=CCC1=C(O)c2ccccc2C(=O)C1=O,> 100000 nM and 45800 nM and 16300 nM,> 100 µM
O=[N+]([O-])c1ccccc1N=Nc1c(O)[nH]c2c(Cl)cc(Cl)cc12,–,> 100 µM
NC(=S)N/N=C/c1ncccc1O,684 nM,4.72 µM and 2.69 µM
O=C(CC(=O)Nc1ccccc1)NNC(Sc1ccccc1)c1cc(N=Nc2ccc(Br)cc2)ccc1O (centres undefined),–,3.47 µM
CCOc1ccc(OCC(=O)O)c2c1CCCC2=O,–,> 100 µM
Cc1cc(C(=O)CSC(=S)SC(C)(C)C)ccc1Cl,–,30.4 µM
C=CC12CCN(CC1)C(C(O)c1ccnc3ccc(OC)cc13)C2 (centres undefined),87100 nM,> 100 µM
O=C(Nc1nc(-c2c[nH]c3ccccc23)cs1)c1n[nH]c(=O)c2ccccc12,3480 nM,20.1 µM
CN(C)CCN1CCC(Cc2ccccc2)CC1,> 80000 nM,> 80 µM
COc1cc2c3c(n(C)c(=O)c2cc1OC)-c1cc2c(cc1C3=O)OCO2,–,> 100 µM
COc1ccc(/C=C\c2cc(OC)c(OC)c(OC)c2)cc1OCC(=O)O,–,62.9 µM
CCOc1ccc(NC(=O)CC2SC(=Nc3ccc(C)cc3C)NC2=O)cc1 (centres undefined),–,> 100 µM
CCSc1nc(N=Cc2ccccc2O)c2cn[nH]c2n1,17400 nM,33 µM
O=C(Nc1ncc(Cc2cccc(C(F)(F)F)c2)s1)c1ccc2c(c1)OCCO2,224 nM,> 48.8 µM
NC(=O)c1cc(I)ccc1NC(=O)/C=C/c1ccccc1,389 nM,> 100 µM
COc1ccc(CNc2c3ccccc3nc3ccccc23)cc1F,1790 nM,3.59 µM
CCn1cc(-c2ccnc3[nH]c(-c4cccc(CN(C)C)c4)cc23)c(-c2ccc(NC(=O)N(C)C)cc2)n1,1910 nM and 2310 nM,16.9 µM and > 10 µM
